In ChEMBL document CHEMBL3351248, “The discovery of potent, selective, and reversible inhibitors of the house dust mite peptidase allergen Der p 1: an innovative approach to the treatment of allergic asthma” (J Med Chem, 2014):
The source made the active and inactive calls. The rule behind the calls is not given here.

system: not listed separately; test: Metabolic stability in rat NR8383 cells after 2 hrs by LC-MS-MS analysis; format: ADME, cell-based; settings: nr8383, 2 h

| Compound | Stability |
| --- | --- |
| CC(C)[C@H](NC(=O)[C@H](C)NC(=O)[C@@H](NC(=O)c1ccnc2ccccc12)C(C)(C)C)C(=O)C(=O)NCc1ccccc1 | Stable |
| CC(C)[C@H](NC(=O)[C@H](C)NC(=O)[C@@H](NC(=O)c1ccccc1)C(C)(C)C)C(=O)C(=O)NCc1ccccc1 | Stable |
| CC(C)[C@H](NC(=O)[C@H](C)NC(=O)[C@H](Cc1ccccc1)NC(=O)c1ccccc1)C(=O)C(=O)NCC(=O)N1CCOCC1 | Stable |
| CC(C)[C@H](NC(=O)[C@H](C)NC(=O)[C@@H](NC(=O)C1CC[N+](C)(C)CC1)C(C)(C)C)C(=O)C(=O)NCc1ccccc1.O=C[O-] | Stable |
| CC(C)[C@H](NC(=O)[C@H](C)NC(=O)[C@H](Cc1ccccc1)NC(=O)c1cccc2ccccc12)C(=O)C(=O)NCC(=O)N1CCN(C)CC1 | Stable |
| CC(C)[C@H](NC(=O)[C@H](C)NC(=O)[C@H](Cc1ccccc1)NC(=O)c1ccccc1)C(=O)C(=O)NCC(=O)N1CCN(C)CC1 | Stable |
| CC(C)[C@H](NC(=O)[C@H](C)NC(=O)[C@H](Cc1ccccc1)NC(=O)c1ccccc1)C(=O)C(=O)NCC(=O)N1CC[N+](C)(C)CC1.O=C[O-] | Stable |
| CC(C)[C@H](NC(=O)[C@H](C)NC(=O)[C@@H](NC(=O)c1ccncc1)C(C)(C)C)C(=O)C(=O)NC1CCCCC1 | Stable |

system: not listed separately; test: Metabolic stability in rat L2 cells after 2 hrs by LC-MS-MS analysis; format: ADME, cell-based; settings: l2, 2 h

| Compound | Stability |
| --- | --- |
| CC(C)[C@H](NC(=O)[C@H](C)NC(=O)[C@@H](NC(=O)c1ccnc2ccccc12)C(C)(C)C)C(=O)C(=O)NCc1ccccc1 | Stable |
| CC(C)[C@H](NC(=O)[C@H](C)NC(=O)[C@@H](NC(=O)c1ccccc1)C(C)(C)C)C(=O)C(=O)NCc1ccccc1 | Stable |
| CC(C)[C@H](NC(=O)[C@H](C)NC(=O)[C@H](Cc1ccccc1)NC(=O)c1ccccc1)C(=O)C(=O)NCC(=O)N1CCOCC1 | Stable |
| CC(C)[C@H](NC(=O)[C@H](C)NC(=O)[C@@H](NC(=O)C1CC[N+](C)(C)CC1)C(C)(C)C)C(=O)C(=O)NCc1ccccc1.O=C[O-] | Stable |
| CC(C)[C@H](NC(=O)[C@H](C)NC(=O)[C@H](Cc1ccccc1)NC(=O)c1cccc2ccccc12)C(=O)C(=O)NCC(=O)N1CCN(C)CC1 | Stable |
| CC(C)[C@H](NC(=O)[C@H](C)NC(=O)[C@H](Cc1ccccc1)NC(=O)c1ccccc1)C(=O)C(=O)NCC(=O)N1CCN(C)CC1 | Stable |
| CC(C)[C@H](NC(=O)[C@H](C)NC(=O)[C@H](Cc1ccccc1)NC(=O)c1ccccc1)C(=O)C(=O)NCC(=O)N1CC[N+](C)(C)CC1.O=C[O-] | Stable |
| CC(C)[C@H](NC(=O)[C@H](C)NC(=O)[C@@H](NC(=O)c1ccncc1)C(C)(C)C)C(=O)C(=O)NC1CCCCC1 | Stable |

system: Rattus norvegicus; test: Inhibition of house dust mites allergan-induced eosinophil recruitment in Brown Norway rat model at 25 to 35 ug/kg administered via intratracheal aerosolization 2 hrs prior to allergan challenge measured after 48 hrs by bronchoalveolar lavage method; format: functional, organism-based; settings: Lung

| Compound | inhibition |
| --- | --- |
| CC(C)[C@H](NC(=O)[C@H](C)NC(=O)[C@@H](NC(=O)c1ccnc2ccccc12)C(C)(C)C)C(=O)C(=O)NCc1ccccc1 | Active |
| CC(C)[C@H](NC(=O)[C@H](C)NC(=O)[C@H](Cc1ccccc1)NC(=O)c1ccccc1)C(=O)C(=O)NCC(=O)N1CCOCC1 | Active |
| CC(C)[C@H](NC(=O)[C@H](C)NC(=O)[C@H](Cc1ccccc1)NC(=O)c1cccc2ccccc12)C(=O)C(=O)NCC(=O)N1CCN(C)CC1 | Active |
| CC(C)[C@H](NC(=O)[C@H](C)NC(=O)[C@H](Cc1ccccc1)NC(=O)c1ccccc1)C(=O)C(=O)NCC(=O)N1CCN(C)CC1 | Active |
| CC(C)[C@H](NC(=O)[C@H](C)NC(=O)[C@@H](NC(=O)c1ccncc1)C(C)(C)C)C(=O)C(=O)NC1CCCCC1 | Active |
